From the supplement of paper PMC10307832

Experiments:
Experiment in all cases: relative viability (nuclei count vs DMSO), 5 days (fraction); higher = more cells survive
Alisertib + Olaparib = compound: COc1cc(Nc2ncc3c(n2)-c2ccc(Cl)cc2C(c2c(F)cccc2OC)=NC3)ccc1C(=O)O [Alisertib] + O=C(c1cc(Cc2n[nH]c(=O)c3ccccc23)ccc1F)N1CCN(C(=O)C2CC2)CC1 [Olaparib] (partner 8 µM)
Procedure, shortened: (§1)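 One day after seeding in 1536-well plates, lung cancer cell lines were dosed by pin tool. Dosing was either single-drug or a fixed anchor-drug dose plus five library-drug doses (not always all listed) in √10 steps. After 5 days, nuclei were stained in one fix-and-stain step and counted on 4× images, and relative viability is the nuclei count of treated wells over that of vehicle wells, given as the median of duplicate plates.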

Alisertib + Decitabine = compound: COc1cc(Nc2ncc3c(n2)-c2ccc(Cl)cc2C(c2c(F)cccc2OC)=NC3)ccc1C(=O)O [Alisertib] + Nc1ncn([C@H]2C[C@H](O)[C@@H](CO)O2)c(=O)n1 [Decitabine] (partner 2 µM)
Procedure, shortened: as §1

Alisertib + AZD7762 = compound: COc1cc(Nc2ncc3c(n2)-c2ccc(Cl)cc2C(c2c(F)cccc2OC)=NC3)ccc1C(=O)O [Alisertib] + NC(=O)Nc1cc(-c2cccc(F)c2)sc1C(=O)N[C@H]1CCCNC1 [AZD7762] (partner 0.2 µM)
Procedure, shortened: as §1

Alisertib + Lapatinib = compound: COc1cc(Nc2ncc3c(n2)-c2ccc(Cl)cc2C(c2c(F)cccc2OC)=NC3)ccc1C(=O)O [Alisertib] + CS(=O)(=O)CCNCc1ccc(-c2ccc3ncnc(Nc4ccc(OCc5cccc(F)c5)c(Cl)c4)c3c2)o1 [Lapatinib] (partner 2 µM)
Procedure, shortened: as §1

Cell Line	relative viability (Alisertib + Olaparib; first compound 0.005 µM)	relative viability (Alisertib + Olaparib; first compound 0.01581 µM)	relative viability (Alisertib + Olaparib; first compound 0.05 µM)	relative viability (Alisertib + Olaparib; first compound 0.1581 µM)	relative viability (Alisertib + Olaparib; first compound 0.5 µM)	relative viability (Alisertib + Decitabine; first compound 0.005 µM)	relative viability (Alisertib + Decitabine; first compound 0.01581 µM)	relative viability (Alisertib + Decitabine; first compound 0.05 µM)	relative viability (Alisertib + Decitabine; first compound 0.1581 µM)	relative viability (Alisertib + Decitabine; first compound 0.5 µM)	relative viability (Alisertib + AZD7762; first compound 0.005 µM)	relative viability (Alisertib + AZD7762; first compound 0.01581 µM)	relative viability (Alisertib + AZD7762; first compound 0.05 µM)	relative viability (Alisertib + AZD7762; first compound 0.1581 µM)	relative viability (Alisertib + AZD7762; first compound 0.5 µM)	relative viability (Alisertib + Lapatinib; first compound 0.005 µM)	relative viability (Alisertib + Lapatinib; first compound 0.01581 µM)	relative viability (Alisertib + Lapatinib; first compound 0.05 µM)	relative viability (Alisertib + Lapatinib; first compound 0.1581 µM)	relative viability (Alisertib + Lapatinib; first compound 0.5 µM)
LC-2-ad	0.642	0.523	0.211	0.245	0.192	0.736	0.673	0.442	0.263	0.23	0.768	0.5	0.224	0.185	0.15	0.681	0.465	0.244	0.152	0.118
LCLC-97TM1	0.332	0.306	0.102	0.0999	0.0824	0.235	0.168	0.114	0.115	0.144	0.192	0.307	0.207	0.103	0.0633	0.405	0.723	0.623	0.262	0.126
LK-2	0.648	0.56	0.294	0.183	0.109	0.294	0.321	0.165	0.143	0.127	0.321	0.382	0.205	0.153	0.14	0.842	0.87	0.49	0.344	0.242
LOU-NH91	0.89	0.871	0.63	0.464	0.399	0.799	0.77	0.651	0.524	0.45	0.759	0.721	0.585	0.436	0.393	0.773	0.784	0.731	0.484	0.361
LU99A	0.253	0.223	0.189	0.151	0.133	0.856	0.85	0.311	0.27	0.186	0.502	0.296	0.158	0.131	0.136	0.855	0.852	0.651	0.214	0.186
LXF-289	0.757	0.593	0.113	0.101	0.131	0.325	0.352	0.183	0.154	0.146	0.922	0.637	0.682	0.163	0.138	0.743	0.654	0.666	0.168	0.166
NCI-H23	0.287	0.167	0.146	0.141	0.155	0.3	0.184	0.184	0.2	0.178	0.194	0.139	0.127	0.135	0.0999	1.01	0.427	0.27	0.176	0.171
NCI-H322M	0.77	0.686	0.565	0.459	0.488	0.714	0.654	0.482	0.425	0.48	0.435	0.565	0.47	0.393	0.395	0.564	0.616	0.548	0.296	0.315
NCI-H358	0.529	0.284	0.117	0.111	0.12	0.222	0.186	0.121	0.086	0.098	0.424	0.433	0.183	0.175	0.165	0.389	0.434	0.211	0.177	0.161
NCI-H460	0.371	0.387	0.0754	0.0677	0.0562	0.441	0.408	0.0826	0.0385	0.0482	0.66	0.667	0.232	0.0611	0.0558	0.977	0.8	0.29	0.0226	0.0161
NCI-H596	0.779	0.773	0.627	0.522	0.254	1.07	1.01	1.01	0.708	0.505	0.96	1.02	1.15	0.926	0.66		1	1.16	0.63	0.433
NCI-H647	0.367	0.278	0.086	0.0609	0.0531	0.286	0.256	0.137	0.129	0.0775	0.314	0.367	0.103	0.0861	0.0503	0.801	0.62	0.275	0.085	0.058
NCI-H650	0.366	0.299	0.171	0.164	0.154	0.295	0.282	0.275	0.185	0.18	0.772	0.738	0.37	0.255	0.259	0.767	0.558	0.266	0.301	0.208
NCI-H727	0.679	0.624	0.556	0.518	0.465	0.843	0.892	0.81	0.617	0.537	0.618	0.586	0.591	0.398	0.326	0.75	0.68	0.497	0.384	0.314
NCI-H838	0.673	0.552	0.324	0.169	0.152	0.402	0.334	0.253	0.213	0.198	0.943	0.852	0.715	0.669	0.626	0.827	0.673	0.391	0.257	0.164
NCI-H1355	0.575	0.476	0.191	0.152	0.159	0.347	0.358	0.229	0.177	0.154	0.707	0.641	0.364	0.168	0.146	0.914	0.837	0.671	0.258	0.184

Cell Line	relative viability (Alisertib + Olaparib; first compound 0.005 µM)	relative viability (Alisertib + Olaparib; first compound 0.01581 µM)	relative viability (Alisertib + Olaparib; first compound 0.05 µM)	relative viability (Alisertib + Olaparib; first compound 0.1581 µM)	relative viability (Alisertib + Olaparib; first compound 0.5 µM)	relative viability (Alisertib + Decitabine; first compound 0.005 µM)	relative viability (Alisertib + Decitabine; first compound 0.01581 µM)	relative viability (Alisertib + Decitabine; first compound 0.05 µM)	relative viability (Alisertib + Decitabine; first compound 0.1581 µM)	relative viability (Alisertib + Decitabine; first compound 0.5 µM)	relative viability (Alisertib + AZD7762; first compound 0.005 µM)	relative viability (Alisertib + AZD7762; first compound 0.01581 µM)	relative viability (Alisertib + AZD7762; first compound 0.05 µM)	relative viability (Alisertib + AZD7762; first compound 0.1581 µM)	relative viability (Alisertib + AZD7762; first compound 0.5 µM)	relative viability (Alisertib + Lapatinib; first compound 0.005 µM)	relative viability (Alisertib + Lapatinib; first compound 0.01581 µM)	relative viability (Alisertib + Lapatinib; first compound 0.05 µM)	relative viability (Alisertib + Lapatinib; first compound 0.1581 µM)	relative viability (Alisertib + Lapatinib; first compound 0.5 µM)
NCI-H1395	0.438	0.424	0.442	0.37	0.361	0.649	0.618	0.505	0.471	0.393	0.363	0.403	0.37	0.376	0.361	0.865	0.843	0.795	0.596	0.391
NCI-H1437	0.585	0.47	0.383	0.257	0.179	0.5	0.519	0.439	0.27	0.209	1.07	1.09	0.751	0.399	0.201	0.729	0.576	0.45	0.218	0.13
NCI-H1651	0.166	0.157	0.12	0.112	0.126	0.557	0.433	0.339	0.182	0.161	0.456	0.455	0.385	0.199	0.129	0.716	0.589	0.434	0.192	0.193
NCI-H1666	0.739	0.739	0.706	0.629	0.511	0.785	0.63	0.615	0.537	0.441	0.768	0.698	0.636	0.477	0.375	0.672	0.451	0.436	0.28	0.236
NCI-H1734	0.591	0.531	0.289	0.315	0.172	0.497	0.466	0.324	0.24	0.177	0.501	0.366	0.23	0.18	0.149	0.905	0.746	0.404	0.264	0.175
NCI-H1755	0.814	0.792	0.532	0.509	0.287	0.643	0.673	0.543	0.413	0.348	0.478	0.427	0.332	0.328	0.259	0.946	0.945	0.833	0.299	0.316
NCI-H1792	0.425	0.384	0.138	0.0583	0.0651	0.575	0.496	0.213	0.132	0.0838	0.571	0.343	0.135	0.0427	0.0721	0.847	0.875	0.61	0.215	0.0684
NCI-H1793	0.798	0.354	0.296	0.273	0.132	0.359	0.309	0.196	0.24	0.206	0.327	0.166	0.215	0.148	0.115	0.887	0.376	0.41	0.22	0.27
NCI-H1915	0.218	0.186	0.142	0.138	0.129	0.257	0.249	0.197	0.198	0.176	0.531	0.597	0.277	0.254	0.206	0.787	0.821	0.606	0.305	0.253
NCI-H1944	0.402	0.381	0.318	0.201	0.178	0.401	0.436	0.324	0.266	0.186	0.531	0.54	0.421	0.147	0.147	0.769	0.829	0.764	0.36	0.188
NCI-H1975	0.68	0.627	0.347	0.234	0.163	0.32	0.359	0.142	0.191	0.153	0.658	0.618	0.521	0.33	0.192	0.78	0.808	0.457	0.234	0.174
NCI-H1993	1.09	0.995	0.682	0.483	0.433	0.356	0.561	0.539	0.383	0.356	0.85	0.629	0.391	0.324	0.364	0.81	0.694	0.537	0.539	0.5
NCI-H2085	0.74	0.723	0.4	0.335	0.35	0.565	0.544	0.319	0.396	0.332	0.876	0.874	0.882	0.284	0.348	0.752	0.692	0.422	0.306	0.323
NCI-H2087	0.549	0.527	0.13	0.126	0.108	0.246	0.268	0.149	0.126	0.0842	1.17	1.29	0.293	0.214	0.185	1.16	0.724	0.245	0.188	0.183
NCI-H2126	0.816	0.785	0.516	0.295	0.321	0.528	0.558	0.326	0.268	0.553	0.936	0.965	0.883	0.466	0.288	0.688	0.754	0.713	0.408	0.312
NCI-H2170	0.601	0.509	0.307	0.206	0.163	0.452	0.448	0.3	0.272	0.147	0.85	0.608	0.59	0.199	0.176	0.268	0.25	0.275	0.221	0.187
